Experimental data published in publication PMC12863032, “Design, synthesis, and anticancer activity of novel isocryptolepine ‘aza’ type acyl thiourea derivatives via combined experimental and computational approach” (Bioscience Reports, 2026).

What was measured:
Format in all cases: biochemical
[1] = molecular target: calf intestinal alkaline phosphatase (CIAP) (Bos taurus, UniProt P19111); assay: Alkaline phosphatase inhibition assay; settings: p-NPP substrate, Mean ± SEM
Method: Spectrophotometric analysis, as previously described in publications, can be used to evaluate the activity of calf intestinal alkaline phosphatase (CIAP). The reaction mixture, including 10 µl of the reagent and 50 mM Tris-HCl buffer (5 mM MgCl2, 0.1 mM ZnCl2, pH 9.5), is preincubated for 10 min following the addition of 5 µl of CIAP (0.025 U/ml). The test mixture was then incubated at 37°C for another half hour after 10 µl of a substrate (0.5 mM p-NPP, para nitrophenyl phosphate disodium salt) was added to initiate the reaction. The alteration in absorbance of released p-nitrophenolate was measured using a 96-well microplate reader (Thermo Scientific Multiskan GO, U.S.A.) at 405 nm. All tests were repeated three times. […] The inhibition activity was calculated according to the following equation:
Inhibition(%)=(Blank−Sample)/Blank×100
IC50 values were designed using 6–8 serial dilutions, and the data were analyzed by nonlinear regression using GraphPad Prism 5 (GraphPad, San Diego, CA, U.S.A.).

mushroom tyrosinase [2] = assay: Mushroom tyrosinase inhibition assay; settings: L-DOPA substrate, Mean ± SEM
Method: The inhibition of mushroom tyrosinase (Sigma Chemical, U.S.A.) was performed in accordance with previously documented methodologies [[57–59]]. Each well of a 96-well microplate received 20 µl of mushroom tyrosinase (30 U/ml), 20 µl of the inhibitor solution, and 140 µl of phosphate buffer (20 mM, pH 6.8). After a 10 min preincubation at room temperature, 20 µl of L-DOPA (3,4-dihydroxyphenylalanine, Sigma Chemical, U.S.A.) at a concentration of 0.85 mM was added, and the test plate was incubated for an additional 20 min at 25°C. The absorbance of dopachrome was later quantified at 475 nm using a microplate reader (SpectraMax ABS, U.S.A.). […] Every experiment was performed three times. IC50 values were calculated by nonlinear regression using GraphPad Prism 5.0 (GraphPad, San Diego, CA U.S.A.).
The % Inhibition of tyrosinase was calculated as following:
Tyrosinase % Inhibition= (Blank−Sample)/B×100 = ( Equation 1 ).

carbonic anhydrase = carbonic anhydrase (Bos taurus, UniProt P00921); assay: Carbonic anhydrase inhibition assay (p-nitrophenyl acetate hydrolysis); settings: bovine enzyme, p-nitrophenyl acetate substrate, Mean ± SEM
Method: The inhibition of carbonic anhydrase was assessed as previously outlined, with certain modifications [[60–62]]. The method employed involves the hydrolysis of p-nitrophenyl acetate by carbonic anhydrase, resulting in the formation of yellow p-nitrophenol, which was subsequently analyzed through spectrophotometry. The reaction mixture included 20 µl of inhibitor, 120 µl of 50 mM Tris-Sulfate buffer (pH 7.6 with 0.1 mM ZnCl2), and 20 µl of bovine enzyme (50 U) per well. The components were mixed and preincubated at 25°C for 10 min. A 6 mM stock solution of the substrate p-nitrophenyl acetate was prepared with less than 5% acetonitrile in buffer and utilized fresh for each experiment, with 40 µl added per well to attain a concentration of […] per well. The total reaction volume was adjusted to 200 µl. […] Acetazolamide served as the reference standard. Each concentration underwent three separate evaluations. IC50 values were determined through nonlinear regression analysis utilizing GraphPad Prism 5.0 (GraphPad, San Diego, CA, U.S.A.).
Inhibition(%)=(B−S)/B×100
Here, the B and S are the absorbances for the blank and samples.

mushroom tyrosinase [3] = assay: Mushroom tyrosinase inhibition assay

calf intestinal alkaline phosphatase (CIAP), sequence (P19111 20-533): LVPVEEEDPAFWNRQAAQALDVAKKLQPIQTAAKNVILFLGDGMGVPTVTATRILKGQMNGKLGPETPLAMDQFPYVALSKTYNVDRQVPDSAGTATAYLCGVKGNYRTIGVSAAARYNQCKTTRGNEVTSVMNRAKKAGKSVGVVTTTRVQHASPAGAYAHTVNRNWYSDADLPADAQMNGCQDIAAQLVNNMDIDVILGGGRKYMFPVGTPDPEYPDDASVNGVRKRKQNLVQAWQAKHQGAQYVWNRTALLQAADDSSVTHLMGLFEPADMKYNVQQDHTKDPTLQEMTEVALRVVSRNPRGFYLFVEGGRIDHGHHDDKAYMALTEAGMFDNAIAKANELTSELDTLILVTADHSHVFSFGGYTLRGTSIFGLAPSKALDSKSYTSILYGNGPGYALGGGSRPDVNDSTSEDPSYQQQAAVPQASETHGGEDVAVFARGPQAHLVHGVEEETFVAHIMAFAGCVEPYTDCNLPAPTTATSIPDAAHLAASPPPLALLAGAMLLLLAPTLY
carbonic anhydrase, sequence (P00921 whole entry): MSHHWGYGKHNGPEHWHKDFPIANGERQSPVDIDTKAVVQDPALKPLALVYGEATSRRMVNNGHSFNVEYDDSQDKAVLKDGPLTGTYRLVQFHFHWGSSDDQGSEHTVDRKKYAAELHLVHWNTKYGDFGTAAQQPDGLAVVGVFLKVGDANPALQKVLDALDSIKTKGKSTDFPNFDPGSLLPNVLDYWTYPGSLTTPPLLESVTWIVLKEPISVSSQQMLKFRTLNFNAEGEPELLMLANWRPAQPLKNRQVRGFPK

Row | Structure (SMILES) | IC50 [1] [µM] | IC50 (mushroom tyrosinase [2]) [µM] | IC50 (carbonic anhydrase) [µM] | Type of tyrosinase inhibition (kinetic studies) (mushroom tyrosinase [3])
1 | CCCCCC(=O)NC(=S)Nc1ccccc1-c1nc2ccccc2c2nc3ccccc3n12 [Compound 6c, N ((2-(Benzo [4, 5]imidazo[1,2 c]quinazolin-6-yl)phenyl)carbamothioyl)hexanamide] | 20.3 | 2.8 ± 0.85 | 7.42 ± 0.74 | –
2 | CCCCCCCCCC(=O)NC(=S)Nc1ccccc1-c1nc2ccccc2c2nc3ccccc3n12 [Compound 6g, N -((2-(Benzo[4,5]imidazo[1,2-c]quinazolin-6-yl)phenyl)carbamothioyl)decanamide] | 2.81 ± 0.42 | 0.832 ± 0.03 | 0.708 ± 0.02 | competitive inhibition
3 | CC(C)(C)C(=O)NC(=S)Nc1ccccc1-c1nc2ccccc2c2nc3ccccc3n12 [Compound 6h, N-((2-(Benzo [4, 5]imidazo[1,2 c]quinazolin-6-yl)phenyl)carbamothioyl)pivalamide] | 7.2 ± 0.63 | 1.27 ± 0.17 | 2.33 ± 0.34 | –
4 | CCCCCCCCC(=O)NC(=S)Nc1ccccc1-c1nc2ccccc2c2nc3ccccc3n12 [Compound 6f, N -((2-(Benzo[4,5]imidazo[1,2-c]quinazolin-6-yl)phenyl)carbamothioyl)nonanamide] | 7.02 | 2.05 ± 0.97 | 7.14 ± 0.95 | –
5 | CCCCCCCC(=O)NC(=S)Nc1ccccc1-c1nc2ccccc2c2nc3ccccc3n12 [Compound 6e, N-((2-(Benzo [4, 5]imidazo[1,2 c]quinazolin-6-yl)phenyl)carbamothioyl)octanamide] | 7.77 | 1.85 ± 0.886 | 1.08 ± 0.42 | –
6 | CCCCCCC(=O)NC(=S)Nc1ccccc1-c1nc2ccccc2c2nc3ccccc3n12 [Compound 6d, N-((2-(Benzo [4, 5]imidazo[1,2 c]quinazolin-6-yl)phenyl)carbamothioyl)heptanamide] | 16.6 ± 0.98 | 0.921 ± 0.07 | 3.51 ± 0.63 | –
7 | CCCCC(=O)NC(=S)Nc1ccccc1-c1nc2ccccc2c2nc3ccccc3n12 [Compound 6b, N -((2-(Benzo[4,5]imidazo[1,2-c]quinazolin-6-yl)phenyl)carbamothioyl)pentanamide] | 10.7 ± 0.96 | 4.88 ± 0.54 | 2.76 ± 0.56 | –
8 | CCCC(=O)NC(=S)Nc1ccccc1-c1nc2ccccc2c2nc3ccccc3n12 [Compound 6a, N-((2-(Benzo [4, 5]imidazo[1,2 c]quinazolin-6-yl)phenyl)carbamothioyl)butyramide] | 20.6 | 7.95 ± 0.63 | 10.9 ± 0.99 | –
